This is an account of results in PubChem BioAssay (NCI).

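Five compound concentrations were applied to cells in 96-well plates for 48 hours; endpoints were derived by simple linear interpolation of the resulting dose-response curve. The concentration for 50% growth inhibition is given as GI50. At the TGI there is no net growth.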

Test systems include SK-MEL-2 melanoma; HCT-15 colon; IGROV1 ovarian; LOX IMVI melanoma; HOP-62 NSCLC; RPMI-8226 leukemia; U251 CNS; BT-549 breast; NCI-H226 lung; HT29 colon.
Holding throughout (experiment): NCI tumour cell line growth inhibition, 48 h

Regarding `Cc1nnc(-c2ccc(-c3nc4ccccc4o3)cc2)o1`, the GI50 in the assay on SK-MEL-2 melanoma was greater than 100 µM; in the assay with HCT-15 colon it was 70.8 µM; in the assay with IGROV1 ovarian it was greater than 100 µM; in the assay with LOX IMVI melanoma it was greater than 100 µM; with HOP-62 NSCLC, 42.8 µM; in the assay with RPMI-8226 leukemia, greater than 100 µM. In addition, the values for the GI50 with U251 CNS and in the assay on BT-549 breast were 16.4 µM and 65.5 µM, respectively. The TGI in the assay with SK-MEL-2 melanoma, in the assay on HCT-15 colon, with IGROV1 ovarian, in the assay with LOX IMVI melanoma, in the assay on HOP-62 NSCLC and in the assay with RPMI-8226 leukemia was greater than 100 µM each time. Further, the TGI in the assay with U251 CNS was 34.8 µM; in the assay on BT-549 breast it was greater than 100 µM.
For the compound `O=C(CC(=O)c1ccccc1)c1ccccc1`, the GI50 is 37.2 µM in the assay with NCI-H226 lung; 87 µM with SK-MEL-2 melanoma; 2.06 µM with HCT-15 colon; 19.9 µM with IGROV1 ovarian; 7.72 µM in the assay with HOP-62 NSCLC; 21.3 µM in the assay on RPMI-8226 leukemia. The GI50 was 2.15 µM in the assay with U251 CNS, 9.37 µM with BT-549 breast and 30.1 µM in the assay with HT29 colon. For the same compound, the TGI in the assay on NCI-H226 lung is greater than 100 µM; in the assay on SK-MEL-2 melanoma, greater than 100 µM; with HCT-15 colon, 6.82 µM; with IGROV1 ovarian, greater than 100 µM; with HOP-62 NSCLC it was 39.6 µM; in the assay with RPMI-8226 leukemia it was greater than 100 µM. For the same compound, the TGI is 8.05 µM in the assay on U251 CNS, 34.3 µM in the assay with BT-549 breast and greater than 100 µM in the assay on HT29 colon.
Turning to `O=C(c1ccccc1)C1C(C(=O)c2ccccc2)C(c2ccccc2)N(c2ccccc2)C1c1ccccc1` (configuration not stated), the TGI in the assay with NCI-H226 lung, in the assay on SK-MEL-2 melanoma, in the assay with HCT-15 colon, in the assay with IGROV1 ovarian, in the assay with LOX IMVI melanoma and in the assay with HOP-62 NSCLC was greater than 100 µM each time. In addition, the TGI in the assay on RPMI-8226 leukemia, in the assay on U251 CNS and in the assay on BT-549 breast was greater than 100 µM throughout.
In the case of `Cc1ccc2c(c1)C(=O)c1c-2n(CCCN=[N+]=[N-])c(=O)c2cc([N+](=O)[O-])ccc12`, the GI50 in the assay on NCI-H226 lung was greater than 100 µM; in the assay with SK-MEL-2 melanoma, greater than 100 µM; in the assay on HCT-15 colon, greater than 100 µM; in the assay with IGROV1 ovarian, 19.2 µM; with LOX IMVI melanoma, 33.2 µM; in the assay with HOP-62 NSCLC, 71.7 µM. In addition, the GI50 in the assay on RPMI-8226 leukemia was 21.3 µM; in the assay on BT-549 breast it was greater than 100 µM; in the assay on HT29 colon, 14.7 µM. Also, the TGI in the assay on NCI-H226 lung, with SK-MEL-2 melanoma, with HCT-15 colon, in the assay with IGROV1 ovarian, in the assay on LOX IMVI melanoma and in the assay with HOP-62 NSCLC was greater than 100 µM each time. The TGI with RPMI-8226 leukemia, with BT-549 breast and in the assay with HT29 colon was greater than 100 µM in each case.
For the compound `COc1cc(/C=N\O)nc(-c2ccccn2)c1`, the TGI was greater than 100 µM with SK-MEL-2 melanoma; greater than 100 µM in the assay with HCT-15 colon; 13.2 µM in the assay on IGROV1 ovarian; greater than 100 µM with LOX IMVI melanoma; greater than 76.8 µM with RPMI-8226 leukemia; greater than 100 µM in the assay with U251 CNS. Moreover, the TGI in the assay with BT-549 breast and with HT29 colon was greater than 100 µM throughout.
For `N#Cc1cccc(OCc2ccccc2COc2cccc(C#N)c2)c1`, the GI50 was 29.1 µM with NCI-H226 lung; greater than 100 µM with SK-MEL-2 melanoma; greater than 100 µM in the assay with HCT-15 colon; greater than 100 µM in the assay on IGROV1 ovarian; 15 µM with RPMI-8226 leukemia; 19.4 µM with U251 CNS. The values for the GI50 in the assay with BT-549 breast and with HT29 colon were 36.7 µM and greater than 100 µM, respectively. Further, the TGI in the assay with NCI-H226 lung is 88.1 µM; in the assay with SK-MEL-2 melanoma it was greater than 100 µM; with HCT-15 colon, greater than 100 µM; with IGROV1 ovarian, greater than 100 µM; in the assay on RPMI-8226 leukemia, 59.1 µM; in the assay on U251 CNS, 43.4 µM. In addition, the TGI in the assay on BT-549 breast was 93.3 µM; with HT29 colon, greater than 100 µM.
Turning to `C#CCN(Cc1nc2cc(C(F)(F)F)ccc2nc1-c1ccccc1)c1ccc(F)c(F)c1`, the GI50 in the assay on NCI-H226 lung is 92.5 µM; with HCT-15 colon, 37.4 µM; with IGROV1 ovarian, 68.1 µM; with LOX IMVI melanoma, 42 µM; in the assay on HOP-62 NSCLC, greater than 100 µM; in the assay on RPMI-8226 leukemia, 22.1 µM. Further, the GI50 in the assay with U251 CNS was 66.5 µM; with BT-549 breast it was 53.1 µM; in the assay on HT29 colon, 41.1 µM. Further, the TGI in the assay with NCI-H226 lung was greater than 100 µM; in the assay with HCT-15 colon, greater than 100 µM; in the assay on IGROV1 ovarian, greater than 100 µM; in the assay with LOX IMVI melanoma, greater than 100 µM; with HOP-62 NSCLC it was greater than 100 µM; with RPMI-8226 leukemia, 82.7 µM. The TGI with U251 CNS, with BT-549 breast and with HT29 colon was greater than 100 µM in each case.
`O=C1c2ccn(CCCCN3CCC(O)CC3)c2C(=O)c2c1c(O)c1ccccc1c2O`: the GI50 was 23.7 µM with NCI-H226 lung; 2.45 µM in the assay on SK-MEL-2 melanoma; 2.68 µM with HCT-15 colon; 2.53 µM with IGROV1 ovarian; 8.04 µM in the assay on LOX IMVI melanoma; 16.3 µM with HOP-62 NSCLC. For the same compound, the GI50 was 15.4 µM in the assay on U251 CNS, 13.2 µM in the assay on BT-549 breast and 46.9 µM in the assay on HT29 colon. For the same compound, the TGI with NCI-H226 lung is 60.2 µM; with SK-MEL-2 melanoma it was 8.32 µM; with HCT-15 colon, 8.83 µM; in the assay with IGROV1 ovarian, greater than 100 µM; with HOP-62 NSCLC, 34.9 µM; in the assay with U251 CNS, 43.4 µM. For the same compound, the TGI in the assay on BT-549 breast was 51.6 µM; in the assay on HT29 colon, greater than 100 µM.
`Cc1cc(O)cc2c1c(=O)c1ccccc1n2C`: the TGI with NCI-H226 lung, with SK-MEL-2 melanoma, in the assay on HCT-15 colon, with IGROV1 ovarian, in the assay with LOX IMVI melanoma and with RPMI-8226 leukemia was greater than 100 µM each time. Further, the TGI in the assay on U251 CNS, in the assay with BT-549 breast and in the assay with HT29 colon was greater than 100 µM in each case.
Consider `Cc1cc(O)c(C(c2ccncc2)c2c(O)cc(C)[nH]c2=O)c(=O)[nH]1`, for which the TGI with HCT-15 colon, in the assay with IGROV1 ovarian, in the assay on LOX IMVI melanoma, with HOP-62 NSCLC, in the assay on RPMI-8226 leukemia and in the assay with U251 CNS was greater than 100 µM throughout. The TGI in the assay with BT-549 breast and with HT29 colon was greater than 100 µM throughout.
